Laboratory results taken from ChEMBL document CHEMBL2375331, “Daphnane-type diterpenes with inhibitory activities against human cancer cell lines from Daphne genkwa” (Bioorg Med Chem Lett, 2013).
pIC50: −log10 of the molar value.

Tests used:
Type in all cases: functional, cell-based
K562 = test: Cytotoxicity against human K562 cells after 48 hrs by MTT assay; conditions: K562, 48 h
U-937 = test: Cytotoxicity against human U937 cells after 48 hrs by MTT assay; conditions: U-937, 48 h
HL-60 = test: Cytotoxicity against human HL60 cells after 48 hrs by MTT assay; conditions: HL-60, 48 h
[1] = Cytotoxicity against human A375-S2 cells after 48 hrs by MTT assay; conditions: A375-S2, 48 h
HT-1080 = test: Cytotoxicity against human HT1080 cells after 48 hrs by MTT assay; conditions: HT-1080, 48 h
HCT-116 = test: Cytotoxicity against human HCT116 cells after 48 hrs by MTT assay; conditions: HCT-116, 48 h
A549 = test: Cytotoxicity against human A549 cells after 48 hrs by MTT assay; conditions: A549, 48 h
HepG2 = test: Cytotoxicity against human HepG2 cells after 48 hrs by MTT assay; conditions: HepG2, 48 h
HeLa = test: Cytotoxicity against human HeLa cells after 48 hrs by MTT assay
MCF7 = test: Cytotoxicity against human MCF7 cells after 48 hrs by MTT assay; conditions: MCF7, 48 h

SMILES	pIC50 (K562)	pIC50 (U-937)	pIC50 (HL-60)	pIC50 [1]	pIC50 (HT-1080)	pIC50 (HCT-116)	pIC50 (A549)	pIC50 (HepG2)	pIC50 (HeLa)	pIC50 (MCF7)
C=C(C)[C@@]12OC3(c4ccccc4)O[C@@H]1[C@@H]1[C@H](O)[C@](O)(CO)[C@@H](O)[C@]4(O)C(=O)[C@@H](C)C=C4[C@@]1(O3)[C@H](C)[C@H]2OC(=O)c1ccccc1	4.33	4.52	4.56	4.84	4.79	< 4.30	4.57	4.56	4.61	4.47
C=C(C)[C@]12C[C@@H](C)[C@@]34O[C@@]5(CCCCCCC[C@@H](C)[C@H]6[C@H](C)[C@H](O)[C@@](O)([C@H](O)[C@@]7(COC(=O)c8ccccc8)O[C@H]7[C@H]3[C@H]1O5)[C@@H]64)O2	4.73	4.78	4.74	4.53	5.02	4.54	4.73	4.95	< 4.30	4.70
C=C(C)[C@]12C[C@@H](C)[C@@]34OC5(CCCCCCC[C@@H](C)[C@H]6[C@H](C)[C@H](O)[C@@](O)([C@H](O)[C@@](O)(COC(=O)c7ccccc7)[C@@H](O)[C@H]3[C@H]1O5)[C@@H]64)O2	< 4.30	< 4.30	< 4.30	4.54	5.11	< 4.30	4.35	4.54	4.60	< 4.30
C=C(C)[C@@]12OC3(/C=C/C=C/CCCCC)O[C@@H]1[C@@H]1[C@@H]4O[C@]4(CO)[C@@H](O)[C@]4(O)C(=O)C(C)=C[C@H]4[C@@]1(O3)[C@H](C)[C@H]2OC(=O)C(C)C	5.29	4.56	4.52	4.60	5.34	4.60	4.64	4.75	< 4.30	4.68
C=C(C)[C@]12C[C@@H](C)[C@]34OC5(CCCCCCC[C@H](C)[C@@H]6[C@@H]3[C@]3(O[C@]6(C)OC3=O)[C@H](O)[C@@]3(CO)O[C@H]3[C@H]4[C@H]1O5)O2	< 4.30	< 4.30	< 4.30	< 4.30	6.08	4.44	4.45	4.55	4.55	4.69
C=C(C)[C@]12C[C@@H](C)[C@]34OC5(CCCCCCC[C@@H](C)[C@@H]6[C@@H]3[C@]3(O[C@]6(C)OC3=O)[C@H](O)[C@@]3(CO)O[C@H]3[C@H]4[C@H]1O5)O2	4.58	4.64	4.47	4.64	4.68	4.58	< 4.30	4.60	4.63	5.13
C=C(C)[C@@]12O[C@@]3(c4ccccc4)O[C@@H]1[C@@H]1[C@@H]4O[C@]4(CO)[C@@H](O)[C@]4(O)C(=O)C(C)=C[C@H]4[C@@]1(O3)[C@H](C)[C@H]2OC(C)=O	< 4.30	< 4.30	< 4.30	< 4.30	> 7.00	4.43	< 4.30	< 4.30	4.37	< 4.30
C=C(C)[C@@]12O[C@@]3(c4ccccc4)O[C@@H]1[C@@H]1[C@@H]4O[C@]4(CO)[C@@H](O)[C@]4(O)C(=O)C(C)=C[C@H]4[C@@]1(O3)[C@H](C)[C@H]2OC(=O)c1ccccc1	4.65	4.88	4.61	4.77	> 7.00	4.53	4.72	4.62	4.72	5.63
C=C(C)[C@@]12OC3(/C=C/C=C/CCCCC)O[C@@H]1[C@@H]1[C@@H]4O[C@]4(CO)[C@@H](O)[C@]4(O)C(=O)C(C)=C[C@H]4[C@@]1(O3)[C@H](C)[C@H]2OC(=O)CC	4.53	4.56	4.64	< 4.30	4.54	4.33	4.73	4.87	4.59	< 4.30
C=C(C)[C@@]12O[C@@]3(c4ccccc4)O[C@@H]1[C@@H]1[C@@H]4O[C@]4(CO)[C@@H](O)[C@]4(O)C(=O)[C@@H](C)C[C@H]4[C@@]1(O3)[C@H](C)[C@H]2OC(C)=O	< 4.30	< 4.30	< 4.30	4.85	> 7.00	< 4.30	< 4.30	< 4.30	4.30	4.63
